Target: T1, human F508del CFTR (Homo sapiens, UniProt P13569, DEL508-508)
T1 construct: expressed in transfected cells
Assay: CFTR-YFP Assay, CFTR Corrector Protocol (YFP flux assay)
Type: cell-based
Details: for Emax: normalized to the positive control, read-out: EMAX (% Efficacy, EMAX normalized to the positive control)

T1 sequence (P13569 with tags, fused parts or gaps DEL508-508): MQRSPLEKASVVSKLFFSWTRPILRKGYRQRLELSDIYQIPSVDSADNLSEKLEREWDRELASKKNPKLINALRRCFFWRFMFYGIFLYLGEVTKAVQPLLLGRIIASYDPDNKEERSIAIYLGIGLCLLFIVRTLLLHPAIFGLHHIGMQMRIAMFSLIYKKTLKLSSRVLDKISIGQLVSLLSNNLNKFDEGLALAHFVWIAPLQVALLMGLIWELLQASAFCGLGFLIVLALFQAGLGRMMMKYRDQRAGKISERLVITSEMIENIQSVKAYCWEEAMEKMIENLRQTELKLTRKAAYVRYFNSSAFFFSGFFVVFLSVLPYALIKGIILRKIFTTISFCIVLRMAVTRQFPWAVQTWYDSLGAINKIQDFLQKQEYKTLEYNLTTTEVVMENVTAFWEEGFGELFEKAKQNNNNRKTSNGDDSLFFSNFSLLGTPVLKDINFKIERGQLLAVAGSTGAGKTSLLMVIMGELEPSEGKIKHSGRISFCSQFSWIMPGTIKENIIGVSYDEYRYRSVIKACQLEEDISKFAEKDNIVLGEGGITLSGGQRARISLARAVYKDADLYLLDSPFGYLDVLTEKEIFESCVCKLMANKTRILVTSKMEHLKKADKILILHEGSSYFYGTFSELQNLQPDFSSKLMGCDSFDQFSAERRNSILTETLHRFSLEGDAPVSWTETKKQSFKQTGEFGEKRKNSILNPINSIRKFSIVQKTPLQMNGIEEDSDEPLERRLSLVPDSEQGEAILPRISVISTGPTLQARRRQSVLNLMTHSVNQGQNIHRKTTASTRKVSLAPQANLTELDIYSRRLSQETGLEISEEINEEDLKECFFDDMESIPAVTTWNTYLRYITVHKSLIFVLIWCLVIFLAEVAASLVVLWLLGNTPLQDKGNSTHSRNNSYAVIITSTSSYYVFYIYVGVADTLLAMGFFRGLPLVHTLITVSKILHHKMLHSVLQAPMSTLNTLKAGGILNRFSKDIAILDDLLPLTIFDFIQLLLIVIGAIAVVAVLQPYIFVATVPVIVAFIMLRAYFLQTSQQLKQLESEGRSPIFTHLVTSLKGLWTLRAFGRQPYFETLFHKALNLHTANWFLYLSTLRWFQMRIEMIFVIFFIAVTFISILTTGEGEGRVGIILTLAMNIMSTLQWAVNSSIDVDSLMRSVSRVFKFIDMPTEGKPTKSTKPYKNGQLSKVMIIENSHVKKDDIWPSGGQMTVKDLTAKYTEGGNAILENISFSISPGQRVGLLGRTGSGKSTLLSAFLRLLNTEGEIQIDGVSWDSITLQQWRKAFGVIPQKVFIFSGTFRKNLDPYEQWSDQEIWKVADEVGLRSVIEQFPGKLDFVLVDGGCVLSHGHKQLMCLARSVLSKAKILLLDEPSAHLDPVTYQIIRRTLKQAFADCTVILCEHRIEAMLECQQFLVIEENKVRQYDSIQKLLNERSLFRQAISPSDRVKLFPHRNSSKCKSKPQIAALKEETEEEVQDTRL

Row | Structure (SMILES) | EC50 [µM] | Emax [%]
1 | COc1ccc2c(c1)nc(-c1ccncc1F)n2C1CCN(S(=O)(=O)c2ccc3nc(C)oc3c2)CC1 [Example 163] | < 10 | > 80
2 | COc1ccc2c(c1)nc(-c1ccc(F)cc1F)n2C1CCN(S(=O)(=O)c2ccc3nc(C)oc3c2)CC1 [Example 164] | < 10 | > 80
3 | Cc1ccnc2c1nc(-c1ccncc1F)n2C1CCN(S(=O)(=O)c2ccc3c(c2)OC(F)(F)O3)CC1 [Example 165] | < 10 | 30 to 80
4 | Cc1ccnc2c1nc(-c1ccncc1Cl)n2C1CCN(S(=O)(=O)c2ccc3c(c2)OC(F)(F)O3)CC1 [Example 166] | < 10 | 30 to 80
5 | CCc1ccc(S(=O)(=O)N2CCC(n3c(-c4ccccc4Cl)nc4cc(O)ccc43)CC2)cc1 [Example 167] | > 20 | 10 to 30
6 | CCc1ccc(S(=O)(=O)N2CCC(n3c(-c4ccncc4Cl)nc4cc(O)ccc43)CC2)cc1 [Example 168] | < 10 | 30 to 80
7 | CCc1ccc(S(=O)(=O)N2CCC(n3c(-c4ccncc4F)nc4c(OC)ccnc43)CC2)cc1 [Example 169] | < 10 | 30 to 80
8 | CCc1ccc(S(=O)(=O)N2CCC(n3c(-c4ccncc4Cl)nc4c(OC)ccnc43)CC2)cc1 [Example 170] | > 20 | 10 to 30
9 | COc1ccc(S(=O)(=O)N2CCC(N(C(=O)c3ccccc3)c3ccccn3)CC2)cc1F [Example 171] | < 10 | 10 to 30
10 | COc1ccc(S(=O)(=O)N2CCC(N(C(=O)c3ccccc3)c3cccc(C)n3)CC2)cc1Cl [Example 174] | > 20 | 10 to 30
11 | CCc1ccc(S(=O)(=O)N2CCC(N(C(=O)Nc3ccccc3Cl)c3cccc(C)n3)CC2)cc1 [Example 175, 3-(2-chlorophenyl)-1-(1-((4-ethylphenyl)sulfonyl)piperidin-4-yl)-1-(6-methylpyridin-2-yl)urea] | < 10 | 10 to 30
12 | COc1ccc(S(=O)(=O)N2CCC(N(C(=O)Nc3ccccc3Cl)c3cccc(C)n3)CC2)cc1Cl [Example 176] | < 10 | 10 to 30
13 | CCc1ccc(S(=O)(=O)N2CCC(N(C(=O)Nc3ccccc3Cl)c3ccccn3)CC2)cc1 [Example 177] | < 10 | 10 to 30
14 | COc1ccc(S(=O)(=O)N2CCC(N(C(=O)Nc3ccccc3Cl)c3ccccn3)CC2)cc1Cl [Example 178] | < 10 | 10 to 30
15 | CCc1ccc(S(=O)(=O)N2CCC(N(C(=O)Nc3ccccc3)c3cccc(C)n3)CC2)cc1 [Example 179] | < 10 | 10 to 30
16 | CCc1ccc(S(=O)(=O)N2CCC(N(C(=O)Nc3ccccc3)c3ccccn3)CC2)cc1 [Example 180] | 10 to 20 | 10 to 30
17 | CCc1ccc(S(=O)(=O)N2CCC(N(c3ccccn3)S(=O)(=O)c3ccccc3)CC2)cc1 [Example 181] | < 10 | 30 to 80
18 | CCc1ccc(S(=O)(=O)N2CCC(N(c3ccccn3)S(=O)(=O)c3ccccc3Cl)CC2)cc1 [Example 182] | < 10 | 10 to 30
19 | CCc1ccc(S(=O)(=O)N2CCC(N(c3ccccn3)S(=O)(=O)c3c(C)cc(C)cc3C)CC2)cc1 [Example 183] | < 10 | 30 to 80
20 | COc1ccc(S(=O)(=O)N2CCC(N(c3ccccn3)S(=O)(=O)c3c(C)cc(C)cc3C)CC2)cc1Cl [Example 184] | < 10 | 10 to 30

Row | Structure (SMILES) | EC50 [µM] | Emax [%]
21 | Cc1cc(C)c(S(=O)(=O)N(c2ccccn2)C2CCN(S(=O)(=O)c3ccc4c(c3)OC(F)(F)O4)CC2)c(C)c1 [Example 185] | < 10 | 30 to 80
22 | CCc1ccc(S(=O)(=O)N2CCC(N(c3cccc(C)n3)S(=O)(=O)c3ccccc3)CC2)cc1 [Example 186] | < 10 | 10 to 30
23 | COc1ccc(S(=O)(=O)N2CCC(N(c3cccc(C)n3)S(=O)(=O)c3ccccc3)CC2)cc1Cl [Example 187] | < 10 | 10 to 30
24 | Cc1cccc(N(C2CCN(S(=O)(=O)c3ccc4c(c3)OC(F)(F)O4)CC2)S(=O)(=O)c2ccccc2)n1 [Example 188] | < 10 | 10 to 30
25 | CCc1ccc(S(=O)(=O)N2CCC(N(c3cccc(C)n3)S(=O)(=O)c3ccccc3Cl)CC2)cc1 [Example 189] | < 10 | 30 to 80
26 | COc1ccc(S(=O)(=O)N2CCC(N(c3cccc(C)n3)S(=O)(=O)c3ccccc3Cl)CC2)cc1Cl [Example 190] | < 10 | 10 to 30
27 | Cc1cccc(N(C2CCN(S(=O)(=O)c3ccc4c(c3)OC(F)(F)O4)CC2)S(=O)(=O)c2ccccc2Cl)n1 [Example 191] | 10 to 20 | 10 to 30
28 | CCc1ccc(S(=O)(=O)N2CCC(N(c3cccc(C)n3)S(=O)(=O)c3c(C)cc(C)cc3C)CC2)cc1 [Example 192] | < 10 | 30 to 80
29 | COc1ccc(S(=O)(=O)N2CCC(N(c3cccc(C)n3)S(=O)(=O)c3c(C)cc(C)cc3C)CC2)cc1Cl [Example 193] | < 10 | 30 to 80
30 | Cc1cc(C)c(S(=O)(=O)N(c2cccc(C)n2)C2CCN(S(=O)(=O)c3ccc4c(c3)OC(F)(F)O4)CC2)c(C)c1 [Example 194] | < 10 | 30 to 80
31 | CCc1ccc(S(=O)(=O)N2CCC(N(C(=S)c3ccccc3)c3ccccn3)CC2)cc1 [Example 195] | < 10 | 30 to 80
32 | CCc1ccc(S(=O)(=O)N2CCC(N(C(=O)c3ccccc3Cl)c3ccccn3)CC2)cc1 [Example 196] | 10 to 20 | 30 to 80
33 | O=C(c1ccccc1Cl)N(c1ccccn1)C1CCN(S(=O)(=O)c2ccc3c(c2)OCO3)CC1 [Example 197] | < 10 | 10 to 30
34 | COc1ccc(S(=O)(=O)N2CCC(N(C(=O)c3ccccc3Cl)c3ccccn3)CC2)cc1Cl [Example 198] | < 10 | 10 to 30
35 | CCc1ccc(S(=O)(=O)N2CCC(N(C(=O)c3ccncc3Cl)c3ccccn3)CC2)cc1 [Example 199] | < 10 | 10 to 30
36 | COc1ccc(S(=O)(=O)N2CCC(N(C(=O)c3ccccc3Cl)c3cccc(C)n3)CC2)cc1F [Example 200] | < 10 | 10 to 30
37 | CCc1ccc(S(=O)(=O)N2CCC(N(C(=O)c3ccccc3Cl)c3cccc(C)n3)CC2)cc1 [Example 201] | < 10 | 30 to 80
38 | Cc1cccc(N(C(=O)c2ccccc2Cl)C2CCN(S(=O)(=O)c3ccc4c(c3)OCO4)CC2)n1 [Example 202] | < 10 | 10 to 30
39 | COc1ccc(S(=O)(=O)N2CCC(N(C(=O)c3ccccc3Cl)c3ccccn3)CC2)cc1F [Example 203] | < 10 | 1
40 | O=C(c1ccccc1)N(c1ccccn1)C1CCN(S(=O)(=O)c2ccc3c(c2)OC(F)(F)O3)CC1 [Example 204] | < 10 | 10 to 30

Row | Structure (SMILES) | EC50 [µM] | Emax [%]
41 | Cc1cccc(N(C(=O)c2ccccc2)C2CCN(S(=O)(=O)c3ccc4c(c3)OC(F)(F)O4)CC2)n1 [Example 205] | < 10 | 10 to 30
42 | COc1ccc(S(=O)(=O)N2CCC(N(C(=O)c3ccccc3Cl)c3cccc(C)n3)CC2)cc1Cl [Example 206] | 10 to 20 | 10 to 30
43 | CCc1ccc(N(C(=O)c2ccccc2Cl)C2CCN(S(=O)(=O)c3ccc(CC)cc3)CC2)cc1 [Example 208] | 10 to 20 | 30 to 80
44 | CCc1ccc(S(=O)(=O)N2CCC(N(C(=O)c3ccccc3Cl)c3ccc4c(c3)OC(F)(F)O4)CC2)cc1 [Example 209] | < 10 | 30 to 80
45 | CCc1ccc(S(=O)(=O)N2CCC(N(C(=O)c3ccccc3Cl)c3ccccc3)CC2)cc1 [Example 210] | 10 to 20 | 30 to 80
46 | CCc1ccc(S(=O)(=O)N2CCC(N(C(=S)c3ccccc3Cl)c3ccc(OC)cc3)CC2)cc1 [Example 211] | 10 to 20 | 30 to 80
47 | CCc1ccc(S(=O)(=O)N2CCC(N(C(=S)c3ccccc3Cl)c3ccc4c(c3)OC(F)(F)O4)CC2)cc1 [Example 212] | 10 to 20 | 30 to 80
48 | CCc1ccc(S(=O)(=O)N2CCC(N(C(=S)c3ccccc3Cl)c3ccccc3)CC2)cc1 [Example 213] | 10 to 20 | 10 to 30
49 | CCc1ccc(S(=O)(=O)N2CCC(N(C(=O)c3ccccc3Cl)c3ccc(Br)cc3)CC2)cc1 [Example 214] | < 10 | 10 to 30
50 | CCc1ccc(S(=O)(=O)N2CCC(N(C(=O)c3ccccc3Cl)c3ccc(I)cc3)CC2)cc1 [Example 216] | < 10 | 10 to 30
51 | CCc1ccc(S(=O)(=O)N2CCC(N(C(=O)c3ccccc3Cl)c3cccc(Cl)c3)CC2)cc1 [Example 217] | < 10 | 10 to 30
52 | CCc1ccc(S(=O)(=O)N2CCC(N(c3ccc(OC)cn3)S(=O)(=O)c3ccccc3Cl)CC2)cc1 [Example 218] | < 10 | 10 to 30
53 | COc1ccc(N(C2CCN(S(=O)(=O)c3ccc4c(c3)OC(F)(F)O4)CC2)S(=O)(=O)c2ccccc2Cl)nc1 [Example 219] | < 10 | 10 to 30
54 | Cc1cccc(N(C2CCN(S(=O)(=O)c3ccc4nc(C)oc4c3)CC2)S(=O)(=O)c2ccccc2Cl)n1 [Example 220, 2-Chloro-N-(1-((2-methylbenzo[d]oxazol-6-yl)sulfonyl)piperidin-4-yl)-N-(6-methylpyridin-2-yl)benzenesulfonamide] | < 10 | 30 to 80
55 | CCc1ccc(S(=O)(=O)N2CCC(N(c3cccc(OC)n3)S(=O)(=O)c3ccccc3Cl)CC2)cc1 [Example 222, 2-Chloro-N-(1-((4-ethylphenyl)sulfonyl)piperidin-4-yl)-N-(6-methoxypyridin-2-yl)benzenesulfonamide] | < 10 | 10 to 30
56 | Cc1ccc(N(C2CCN(S(=O)(=O)c3ccc4nc(C)oc4c3)CC2)S(=O)(=O)c2ccccc2Cl)nc1 [Example 223] | 10 to 20 | 10 to 30
57 | CCc1ccc(S(=O)(=O)N2CCC(N(c3ccccn3)S(=O)(=O)c3ccccc3C)CC2)cc1 [Example 225] | < 10 | 10 to 30
58 | CCc1ccc(S(=O)(=O)N2CCC(N(c3ccccn3)S(=O)(=O)c3cccc(C)c3)CC2)cc1 [Example 226] | < 10 | 10 to 30

From patent publication US9944603B2, “Compounds and methods for the treatment of cystic fibrosis” (Flatley Discovery Lab, LLC, priority 2013, dated 2018)
